Here are results for 1 compound from patent publication US3985779A, “M-phenoxyphenyl propionic acid derivatives and preparation thereof” (Eisai Co., Ltd., priority 1973, dated 1976).

Like-named read-outs stand apart in the source and are kept apart here.

The subject of this test is granuloma induced by Formalin Filter paper Pellet. The note with it: for Adrenal / Granuloma-Wet-Weight ± S.E. / Thymus: 6 days.

For `CC(C(=O)O)c1cccc(Oc2ccccc2Cl)c1` (stereo not shown) [Compound (5), 2-[m-(o-chlorophenoxy)phenyl]propionic acid], where the note is “daily oral 8 mg/kg”, the Adrenal is listed as 44.6 mg, the “Granuloma-Wet-Weight ± S.E.” value stood at 68 ± 4 and the Thymus is 545 mg. For the setting “daily oral 40 mg/kg”, the Adrenal turned out to be 43.8 mg, the “Granuloma-Wet-Weight ± S.E.” value is given as 89 ± 4 and the Thymus turned out to be 522 mg. Besides, the “inhibitory activity on granuloma (in words)” value (oral 8 and 40 mg/kg/day for successive 6 days) is “significant effect as compared with the control”.
